Values of other authors, collected in patent US7825087B2 (Elan Pharma International Limited, priority 2005, dated 2010).

How the values were obtained:
[1] = distribution in blood, concentration dependent
[2] = system: bone marrow; settings: animal models or man

Substance: [R—[R*,R*-(E)]]-cyclic (L-alanyl-D-alanyl-N-methyl-L-leucyl-N-methyl-L-leucyl-N-methyl-L-valyl-3-hydroxy-N,4-dimethyl-L-2-amino-6-octenoyl-L-(alpha)-amino-butyryl-N-methylglycyl-N-methyl-L-leucyl-L-valyl-N-methyl-L-leucyl) [cyclosporine]
- fraction in erythrocytes [1]: 41%-58%
- fraction in granulocytes [1]: 5%-12%
- fraction in lymphocytes [1]: 4%-9%
- bone marrow suppression [2]: does not cause bone marrow suppression
